Experimental data: publication PMC4167715 (Biochemistry, 2013)

Assays:
[1] = molecular target: S. aureus class II fructose 1,6-bisphosphate aldolase (SaFBA) (Staphylococcus aureus, UniProt Q5HE75); test: biochemical; conditions: read-out: % inhibition at 25 μM
[2] = molecular target: E. coli class II fructose 1,6-bisphosphate aldolase (EcFBA) (Escherichia coli, UniProt P0AB71); test: coupled fluorescence FBP cleavage assay, single concentration; type: biochemical; conditions: read-out: % inhibition at 25 μM
[3] = molecular target: M. tuberculosis class II fructose 1,6-bisphosphate aldolase (MtFBA) (Mycobacterium tuberculosis, UniProt P9WQA3); test: X-ray crystal structure; type: binding
Sequence of M. tuberculosis class II fructose 1,6-bisphosphate aldolase (MtFBA) (P9WQA3 whole entry): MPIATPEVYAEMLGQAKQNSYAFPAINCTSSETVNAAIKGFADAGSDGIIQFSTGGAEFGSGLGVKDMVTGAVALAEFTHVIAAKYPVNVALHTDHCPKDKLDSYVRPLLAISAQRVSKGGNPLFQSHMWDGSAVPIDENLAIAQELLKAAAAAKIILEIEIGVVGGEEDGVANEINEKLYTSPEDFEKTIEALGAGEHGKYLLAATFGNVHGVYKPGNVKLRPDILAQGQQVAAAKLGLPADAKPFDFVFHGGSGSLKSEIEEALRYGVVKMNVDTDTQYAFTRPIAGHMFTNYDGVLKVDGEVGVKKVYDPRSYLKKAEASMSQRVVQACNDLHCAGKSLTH

Sequence of E. coli class II fructose 1,6-bisphosphate aldolase (EcFBA) (P0AB71 2-359): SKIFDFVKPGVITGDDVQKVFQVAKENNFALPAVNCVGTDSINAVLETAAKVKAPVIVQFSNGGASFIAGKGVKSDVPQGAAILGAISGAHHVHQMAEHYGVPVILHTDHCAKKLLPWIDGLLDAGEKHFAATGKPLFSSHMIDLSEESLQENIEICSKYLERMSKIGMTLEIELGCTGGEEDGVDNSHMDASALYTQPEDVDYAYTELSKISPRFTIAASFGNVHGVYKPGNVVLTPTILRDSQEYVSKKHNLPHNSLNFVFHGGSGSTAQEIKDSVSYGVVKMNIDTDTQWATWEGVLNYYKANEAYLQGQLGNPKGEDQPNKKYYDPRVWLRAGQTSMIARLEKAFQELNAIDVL
Sequence of S. aureus class II fructose 1,6-bisphosphate aldolase (SaFBA) (Q5HE75 whole entry): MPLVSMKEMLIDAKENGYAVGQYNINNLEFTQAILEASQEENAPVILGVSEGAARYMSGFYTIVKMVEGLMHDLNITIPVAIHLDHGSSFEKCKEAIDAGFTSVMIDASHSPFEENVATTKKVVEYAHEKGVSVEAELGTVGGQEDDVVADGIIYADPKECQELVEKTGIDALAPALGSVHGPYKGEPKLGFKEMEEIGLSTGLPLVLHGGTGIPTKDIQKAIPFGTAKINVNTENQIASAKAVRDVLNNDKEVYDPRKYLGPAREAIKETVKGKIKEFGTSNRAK

O=C(O)c1ccc2cccc(O)c2n1 [HCA, 8-hydroxyquinoline-2-carboxylic acid]
inhibition at 25 µM [1]: 64.3 ± 0.6% | inhibition at 25 µM [2]: 42.2 ± 2.8% | Kd [3]: 70.8 ± 2.7 µM
